{
  "source": "patent US10092657B2",
  "about": "“Opsonized β-glucan preparations and methods” (Biothera, Inc., priority 2011, dated 2018)",
  "key": {"[1]": {"system": "human neutrophils", "experiment": "Binding studies on the role of complement proteins in serum, neutrophils", "assay_type": "cell-based", "description": "Heat-inactivated (HI) serum was prepared by incubating serum in a 56° C. water bath for 30 minutes. […] Treatment of serum with methylamine (MA) was done by incubating serum with 0.67% of methylamine for 2.5 hours at 37° C., followed by three washes with DPBS using Amicon centrifugal filter unit with a 3K MW cut-off (Millipore, Billerica, Mass.). DPBS-treated serum was prepared in the same manner and used as control serum for MA-treated serum. For blocking of factor D in the serum, 166-32 at concentration 20 μg/mL was incubated with serum on ice for 30 minutes, and then used for binding studies. For binding experiments in the presence of EGTA or MgEGTA, serum was incubated with 10 mM EGTA with or without 10 mM MgCl2 for 10 minutes at room temperature. The untreated and EGTA/MgEGTA-treated serum was then used to pre-treat PGG and perform binding studies as described earlier."}, "[2]": {"system": "human neutrophils", "experiment": "Binding of DTAF-labeled PGG β-glucan to human neutrophils, with excess unlabeled competitor", "assay_type": "cell-based", "conditions": "10 mg/mL unlabeled competitor; 25 μg/mL DTAF-labeled β-glucan"}, "[3]": {"system": "human neutrophils", "experiment": "iC3b staining on PGG β-glucan-bound neutrophils (flow cytometry, confocal microscopy)", "assay_type": "cell-based", "description": "Binding of PGG β-glucan to neutrophils and PBMC was done as above. iC3b deposition on these cells was detected by staining with a neo-epitope specific anti-iC3b Ab and PE-conjugated goat anti-mouse IgG and analyzing by flow cytometry.\nEnriched neutrophils, resuspended at 1×10^6 cells/mL in either RPMI supplemented with 20% serum or heat-inactivated serum, were mixed with PGG β-glucan before being applied to a 10 mm glass cover slip placed in the well of a 24-well plate. The plate was incubated in a 37° C., humidified 5% CO2 incubator for one hour. Unbound cells and PGG β-glucan were removed by washing with warmed PBS, and bound cells were subsequently fixed in 1% formaldehyde at room temp for 15 minutes. Cells were blocked with FCR blocking agent prior to staining with BFD IV and anti-iC3b monoclonal antibody for 30 minutes at 4° C., and followed by the secondary staining antibodies Cy5-conjugated goat anti-mouse IgM and Cy3-conjugated goat anti-mouse IgG at 4° C. for 30 minutes. Cells were penneabilized with 0.1% ice-cold TritonX-100 for three minutes on ice, stained with DAPI on ice for five minutes before mounting onto slides. Images were analyzed and acquired with Olympus FluoView 1000 IX2 Inverted confocal microscope. Images were adjusted equally in Adobe Photoshop (Adobe Systems Inc., San Jose, Calif.)."}, "[4]": {"system": "T-cells", "experiment": "Binding of PGG β-glucan to T-cells within PBMC (BfD IV staining, flow cytometry)", "assay_type": "cell-based, human", "conditions": "100, 200, 400 μg/mL; 10% autologous serum; 37° C.; two hours", "description": "Enriched neutrophils or PBMC were resuspended at 1×10^6 cells/mL in RPMI 1640 supplemented with 10% serum. PGG β-glucan at hexose concentrations 100 μg/mL, 200 μg/mL, or 400 μg/mL were added to neutrophils or PBMC and incubated in a 37° C., 5% CO2 humidified incubator for two hours. After incubation, cells were washed twice with FACS buffer (HBSS supplemented with 1% FBS and 0.1% sodium azide) to remove any unbound β-glucan, and subsequently treated with Fc block (Miltenyi Biotec, Auburn, Calif.). After the Fc block step, cells were stained with the BfD IV Ab for 30 minutes at 4° C. and washed twice with cold FACS buffer. Cells were then incubated with FITC-conjugated F(ab′)2 goat anti-mouse IgM for 30 minutes at 4° C. and washed once with cold FACS buffer before fixing with 1% paraformaldehyde.\nIn early optimization experiments, neutrophils, monocytes, and T cells were identified by staining with fluorescently labeled anti-CD 15, anti-CD 14, or anti-CD3 Abs, respectively. […] Surface binding of DTAF-conjugated β-glucan was subsequently assessed by flow cytometric analysis. To determine receptor-specific binding, binding of 25 μg/mL of DTAF-labeled PGG β-glucan was assessed by incubating the labeled β-glucan with the cells in the presence of 10 mg/mL of unlabeled PGG β-glucan or dextran."}, "[5]": {"system": "human monocytes", "experiment": "Binding of PGG β-glucan to human monocytes within PBMC (BfD IV staining, flow cytometry)", "assay_type": "cell-based", "description": "Enriched neutrophils or PBMC were resuspended at 1×10^6 cells/mL in RPMI 1640 supplemented with 10% serum. PGG β-glucan at hexose concentrations 100 μg/mL, 200 μg/mL, or 400 μg/mL were added to neutrophils or PBMC and incubated in a 37° C., 5% CO2 humidified incubator for two hours. After incubation, cells were washed twice with FACS buffer (HBSS supplemented with 1% FBS and 0.1% sodium azide) to remove any unbound β-glucan, and subsequently treated with Fc block (Miltenyi Biotec, Auburn, Calif.). […] Cells were then incubated with FITC-conjugated F(ab′)2 goat anti-mouse IgM for 30 minutes at 4° C. and washed once with cold FACS buffer before fixing with 1% paraformaldehyde. In early optimization experiments, neutrophils, monocytes, and T cells were identified by staining with fluorescently labeled anti-CD 15, anti-CD 14, or anti-CD3 Abs, respectively. Events were collected on a LSRII flow cytometer (BD Biosciences, San Jose, Calif.) and analysis was performed using FLOWJO (Tree Star, Ashland, Oreg.). […] Surface binding of DTAF-conjugated β-glucan was subsequently assessed by flow cytometric analysis. […] The experiments to determine binding of PGG β-glucan at 200 μg/mL to neutrophils or at 100 μg/mL to PBMC were performed as described above with the following changes. For determining serum dependency, PGG β-glucan was incubated with neutrophils or PBMC resuspended in RPMI 1640 containing 2%, 5%, or 10% autologous serum at 37° C. for two hours. For time-course experiments, PGG β-glucan at indicated concentrations was incubated with cells resuspended in 10% autologous serum at 37° C. for 10 minutes, 20 minutes, 60 minutes, or 120 minutes. For temperature dependency experiments, PGG β-glucan at indicated concentrations was incubated with cells resuspended in 10% autologous serum for two hours at 4° C., room temperature, or 37° C."}, "[6]": {"conditions": "2%, 5% or 10% autologous serum, 37° C., two hours"}},
  "data": [
    {"substance": "β(1,6)-[poly-1,3)-D-glucopyranosyl]-poly-β(1,3)-D-glucopyranose [PGG β-glucan]", "values": [
      {"measurement": "Binding in the presence of heat inactivated (HI) serum", "setting": "[1]; 10% HI serum vs regular serum, 200 μg/mL", "value": "abrogated"},
      {"measurement": "Average percentage of binding inhibition in HI serum", "setting": "[1]; based on MFI, five donors", "value": 89, "unit": "%"},
      {"measurement": "Range of percentage of binding inhibition in HI serum", "setting": "[1]; based on MFI, five donors", "value": "71-100%"},
      {"measurement": "Blocking of DTAF-labeled β-glucan staining by excess unlabeled glucan", "setting": "[2]", "value": "blocked by excess unlabeled β-glucan"},
      {"measurement": "iC3b staining on cells incubated with β-glucan vs serum alone", "setting": "[3]; 200 μg/mL, 10% serum, 37° C., two hours", "value": "increased staining of iC3b"},
      {"measurement": "Co-localization of bound glucan and iC3b (confocal microscopy)", "setting": "[3]; BfD IV and anti-iC3b double staining", "value": "co-localized"},
      {"measurement": "Binding (MFI and percentage of BfD IV positive cells)", "setting": "[4]", "value": "not to T-cells"},
      {"measurement": "Minimum concentration of β-glucan detected on the cells by the BfD IV detection system", "setting": "[5]", "value": 100, "unit": "µg/mL"},
      {"measurement": "Incubation time of maximal binding", "setting": "[5]; 100 μg/mL, 10% serum, 37° C.", "value": "60 to 120", "unit": "min"},
      {"measurement": "Percentage of serum at which maximal binding occurred", "setting": "[5]; [6]", "value": 10, "unit": "%"},
      {"measurement": "Percentage of serum at which minimum binding occurred", "setting": "[5]; [6]", "value": 2, "unit": "%"},
      {"measurement": "Concentration at which percentage of BfD IV positive cells reached a plateau", "setting": "[5]; 10% autologous serum, 37° C., two hours", "value": 200, "unit": "µg/mL"},
      {"measurement": "Binding (MFI and percentage of BfD IV positive cells)", "setting": "[5]; 100, 200, 400 μg/mL, 10% autologous serum, 37° C., two hours", "value": "bound to both neutrophils and monocytes"},
      {"measurement": "Incubation temperature of maximal binding", "setting": "[5]; two hours at 4° C., room temperature or 37° C., 10% serum", "value": 37, "unit": "°C"}
    ]}
  ]
}
